According to BindingDB's records for doi:10.1021/acs.jmedchem.5b01538 (Glaxosmithkline, 2016):
pIC50: −log10 of the molar value.

Biological target: T1, Lysine-specific demethylase 4C (Homo sapiens, UniProt Q9H3R0)
T1 sequence (Q9H3R0 whole entry): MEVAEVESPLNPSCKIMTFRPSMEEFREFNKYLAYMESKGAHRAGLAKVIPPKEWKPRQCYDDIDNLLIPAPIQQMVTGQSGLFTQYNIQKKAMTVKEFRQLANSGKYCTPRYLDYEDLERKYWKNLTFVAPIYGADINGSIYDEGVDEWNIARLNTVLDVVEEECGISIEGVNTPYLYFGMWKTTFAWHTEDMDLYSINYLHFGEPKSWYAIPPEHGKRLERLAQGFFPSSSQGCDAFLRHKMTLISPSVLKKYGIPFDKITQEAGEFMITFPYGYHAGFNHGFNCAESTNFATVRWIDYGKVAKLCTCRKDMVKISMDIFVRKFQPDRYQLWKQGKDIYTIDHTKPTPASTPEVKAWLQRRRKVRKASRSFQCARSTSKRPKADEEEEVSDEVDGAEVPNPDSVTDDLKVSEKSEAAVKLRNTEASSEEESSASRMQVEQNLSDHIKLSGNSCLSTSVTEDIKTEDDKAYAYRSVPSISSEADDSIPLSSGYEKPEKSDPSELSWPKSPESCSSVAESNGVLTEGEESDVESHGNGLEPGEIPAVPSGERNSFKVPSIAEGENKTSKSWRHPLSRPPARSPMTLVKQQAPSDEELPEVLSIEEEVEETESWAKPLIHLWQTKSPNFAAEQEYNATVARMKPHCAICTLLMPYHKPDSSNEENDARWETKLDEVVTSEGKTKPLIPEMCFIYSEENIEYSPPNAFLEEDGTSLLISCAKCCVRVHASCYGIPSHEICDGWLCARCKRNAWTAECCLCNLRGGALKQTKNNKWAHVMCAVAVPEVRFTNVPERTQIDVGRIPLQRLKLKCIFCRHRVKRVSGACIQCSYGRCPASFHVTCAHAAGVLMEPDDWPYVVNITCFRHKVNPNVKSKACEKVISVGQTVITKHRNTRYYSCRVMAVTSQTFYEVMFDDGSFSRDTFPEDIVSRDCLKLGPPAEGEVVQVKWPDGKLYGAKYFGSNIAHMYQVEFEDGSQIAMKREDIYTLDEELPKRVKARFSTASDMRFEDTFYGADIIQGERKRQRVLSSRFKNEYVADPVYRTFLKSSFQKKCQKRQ
Test: Inhibition of N-terminal his-tagged full-length human KDM4C transfected in U2OS cells assessed as inhibition of H3K9Me3 demethylation for 24 hrs

pIC50 | Structure (SMILES)
5.40 | O=c1[nH]c(Oc2ccc(Cl)c(O)c2)nc2cnccc12
5.40 | CC(C)c1ccc(Oc2nc3cnccc3c(=O)[nH]2)cn1
